How the values were obtained:
tocopherol-depleted rats = details: rats fed tocopherol for two weeks after chronic iron-dextran (Dillard et al., 1983); cited from earlier work
rodent = rodent (Novelli et al., 1990); cited from earlier work
[1] = cited from earlier work; for absorption by the gut: Traber et al., 1992
humans = details: limited trials in humans (Clarkson 1995; Powers and Lennon 1999); cited from earlier work
[2] = liposomal tocopherol exposed to synthetic peroxynitrite (Christen et al., 1997); cited from earlier work
[3] = tested on: methylcholanthrene-treated C3H/10T1/2 fibroblasts; details: methylcholanthrene-treated C3H/10T1/2 fibroblasts (Cooney et al., 1993); cited from earlier work
[4] = tested on: Normal, nontransgenic (NonTg) C57/B6 mice; assay: rotorod performance task (motor function); format: in vivo; details: diet supplemented with additional 200 mg/kg tocopherol from 40 days of age; versus basal diet or α-tocopherol supplemented diet
Procedure: Normal, nontransgenic (NonTg) C57/B6 mice were studied for efficacy of γT on motor performance and/or enhanced muscle function. Beginning at 40 days of age, animals were fed a basal AIN93G laboratory animal diet containing 75 mg/kg α-tocopherol and negligible γ-tocopherol; or the same diet supplemented with an additional 200 mg/kg α-tocopherol or γ-tocopherol. Motor function was measured by a standard rotorod performance task (Klivenyi et al., 1999). Animals were placed on a motorized, rubber-coated metal rod that was set to rotate at 1 rpm increasing by 1 rpm every 10 seconds (Klivenyi et al., 1999). The speed of the rod rotation at which the mouse falls off is taken as a measure of motor competency (Klivenyi et al., 1999). Each mouse was tested in three trials every 10 days.

[5] = tested on: iron-induced lipid peroxidation and occlusive thrombus formation; details: Saldeen et al., 1999; cited from earlier work
[6] = relative to the corresponding reaction of αT (Cooney et al., 1993); cited from earlier work

| Compound | inhibition of systemic lipid oxidation (tocopherol-depleted rats) | endurance during a swimming test (rodent) | absorption by the gut [1] | muscle endurance (humans) | effectiveness at inhibiting systemic lipid oxidation relative to αT (tocopherol-depleted rats) | effectiveness at inhibiting lipid hydroperoxide formation relative to αT [2] | effectiveness at inhibiting neoplastic transformation relative to αT [3] | capability of performing the motor function task (rotorod) [4] | packaging into lipoproteins ([1]; relative to αT (Traber et al., 1992)) | potency at inhibition of iron-induced lipid peroxidation and occlusive thrombus formation relative to αT [5] | rate of in vitro reaction with NO2 gas relative to αT [6] |
| --- | --- | --- | --- | --- | --- | --- | --- | --- | --- | --- | --- |
| Cc1c(C)c2c(c(C)c1O)CC[C@@](C)(CCC[C@H](C)CCC[C@H](C)CCCC(C)C)O2 [α-tocopherol, reference compound] | inhibited systemic lipid oxidation | extended rodent endurance | absorbed equally well | did not extend muscle endurance |  |  |  |  |  |  |  |
| Cc1c(O)cc2c(c1C)O[C@](C)(CCC[C@H](C)CCC[C@H](C)CCCC(C)C)CC2 [γ-tocopherol] | inhibited systemic lipid oxidation |  | absorbed equally well |  | approximately 35% | twice as effective | 4 fold | significantly more capable of performing the motor function task | less effectively | 20-30 times | 6 times |

Source: patent US20040034093A1, “Methods for enhancing motor performance and/or endurance” (priority 2002, published 2004)
